Laboratory results: publication PMC4520450, “Procyanidins Negatively Affect the Activity of the Phosphatases of Regenerating Liver” (PLoS ONE, 2015)

Assays:
Assay type in all cases: biochemical
PRL-2 = target: T1, PRL-2 (Homo sapiens, UniProt Q12974); assay: DiFMUP phosphatase activity assay for PRLs; settings: 50 nM PRL-2, 30 min preincubation, 25°C, 24 μM DiFMUP; mean ± SEM (n = 3–5); read-out: IC50 (Ki) PRL-2
T1 construct: His-TEV (cleaved yes); made in house
T1 sequence (Q12974 1-167): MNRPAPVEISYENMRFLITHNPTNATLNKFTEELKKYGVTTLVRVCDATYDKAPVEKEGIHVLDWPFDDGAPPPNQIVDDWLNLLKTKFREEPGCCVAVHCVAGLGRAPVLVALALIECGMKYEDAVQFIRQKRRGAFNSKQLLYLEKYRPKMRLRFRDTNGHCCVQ
Protocol: (§1) Fig 2 Effect of polyphenolic compounds 8 (A), 9 (B), 10 (C) and 11 (D) on the phosphatase activity of PRL-1, PRL-2, PRL-3, PP1, and PP2A. Proteins were incubated for 30 min with 0–1000 μM of the corresponding procyandin 8–11. Phosphatase activity was measured in the presence of DiFMUP at 25°C using the concentration corresponding to the KM of each protein. The KM for PRLs was determined separately (PRL-3 = 21 μM, PRL-2 and PRL-1 = 24 μM). The KM for PP1 (91 μM) and for PP2A (100 μM) was taken from the literature. Protein concentrations are 50 nM for all PRLs and 2 mU for PP1 and 0.05 U for PP2A (see the Experimental Procedures). Phosphatase activity in the absence of inhibitors was set as 100%. Data represent means ± standard errors of the mean (n = 3–5).
(§2) DiFMUP assay for PRLs: In a final reaction volume of 100 μL the PRLs (50 nM final concentration) were incubated with decreasing concentrations of the inhibitory polyphenols for 30 minutes at 25°C. The buffer conditions were 108 mM TrisCl (pH 7.5), Triton 0.05% (v/v), DTT 27.0 mM, NaCl 811 mM. After the incubation time 20 μL DiFMUP (6,8-Difluoro-4-methylumbelliferyl phosphate) was added to reach a final concentration of 21 μM for PRL-3 and 24 μM for PRL-1 and PRL-2. On a Tecan safire2 (Tecan, Salzburg, Austria) plate reader dephosphorylation of the substrate to its fluorescent product was monitored by following the emission at 358 nm with excitation at 452 nm for 20 minutes. All measurements were done in triplicates, and the experiments were repeated at least three times. The slopes of the initial phases were obtained by linear regression of the data points. The normalized reaction rates were plotted versus the log of the inhibitor concentrations and the IC50 values were obtained by fitting the curves using the one site competition model of GraphPad Prism (GraphPad Software, Version 5). KM values were determined by measuring reaction kinetics of substrate dilution series. Initial velocities were plotted against DiFMUP concentration and the data was analyzed by Michaelis-Menten kinetics curve fitting of GraphPad Prism. A final DMSO content of 0.4% was maintained for the monomeric catechins. Due to the high water solubility of the procyanidins DMSO was not required and measurements were done in assay buffer only.

PRL-1 = target: T2, PRL-1 (Homo sapiens, UniProt Q93096); assay: DiFMUP phosphatase activity assay for PRLs; settings: for IC50: 50 nM PRL-1, 30 min preincubation, 25°C, 24 μM DiFMUP, mean ± SEM (n = 3–5), read-out: IC50 (Ki) PRL-1
T2 construct: His-TEV (cleaved yes); made in house
T2 sequence (Q93096 1-173): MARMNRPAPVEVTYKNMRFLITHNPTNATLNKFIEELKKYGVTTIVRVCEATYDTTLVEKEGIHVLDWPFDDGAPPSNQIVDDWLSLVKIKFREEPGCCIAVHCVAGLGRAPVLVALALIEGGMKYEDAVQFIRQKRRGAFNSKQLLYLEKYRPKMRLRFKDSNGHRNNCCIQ
Protocol: as §1, §2

PP1 = target: T3, PP1 (Oryctolagus cuniculus, UniProt P62139); assay: DiFMUP assay for PP1; settings: 2 mU PP1c, 30 min preincubation, 25°C, DiFMUP, no BSA; mean ± SEM (n = 3–5); read-out: IC50 (Ki) PP1
T3 construct: purchased NewEngland Biolabs; host or cells: E. coli
T3 sequence (P62139 whole entry): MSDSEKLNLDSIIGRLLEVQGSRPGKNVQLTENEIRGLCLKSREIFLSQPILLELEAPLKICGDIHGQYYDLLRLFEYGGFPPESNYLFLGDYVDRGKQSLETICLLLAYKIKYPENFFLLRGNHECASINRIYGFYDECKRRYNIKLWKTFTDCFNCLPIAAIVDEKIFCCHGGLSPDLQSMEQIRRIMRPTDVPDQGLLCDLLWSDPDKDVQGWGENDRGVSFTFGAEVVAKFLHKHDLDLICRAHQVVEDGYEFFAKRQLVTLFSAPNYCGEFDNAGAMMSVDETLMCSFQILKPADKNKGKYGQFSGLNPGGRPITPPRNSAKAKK
Protocol: as §1
BSA, which is usually supplemented to the assay buffer for stabilizing the PPs was however excluded, as BSA is known to form complexes with polyphenolic compounds [40–42] and thus would decrease the concentrations of the inhibitor in the assay. […] In contrast, the phosphatase activity of PP2A was suppressed to a much lesser extent with weak (for trimer 9 and hexamer 11) and strong statistical significance (dimer 8 and tetramer 10). Thus our results corroborate the data reported previously.
DiFMUP assay for PP1: In a final reaction volume of 100 μL PP1c (2 mU final concentration, according to manufacturer’s instructions) were incubated with decreasing concentrations of the inhibitory polyphenols for 30 minutes at 25°C. The assay buffer contained 25 mM imidazole (pH 7.4), 1 mM dithiothreitol (DTT), and 50 mM NaCl. Bovine serum albumin (BSA) was excluded due to possible binding of the polyphenolic compounds. After the incubation time 20 μL DiFMUP (6,8-Difluoro-4-methylumbelliferyl phosphate) was added to reach a final concentration of 100 μM. Monitoring of the fluorescent dephosphorylation product was monitored and data analyzed as described above.

Compound	IC50 (PRL-2) [µM]	IC50 (PRL-1) [µM]	fold higher activity toward PRL-1 compared to PRL-3 (PRL-1; in vitro, from IC50 values) [fold]	IC50 (PP1) [µM]
Oc1cc(O)c2c(c1)O[C@H](c1ccc(O)c(O)c1)[C@@H](O)[C@@H]2c1c(O)cc(O)c2c1O[C@H](c1ccc(O)c(O)c1)[C@@H](O)C2 [Procyanidin B3 (8), Procyanidin B3]	103 ± 1.1	3.3 ± 1.2	38	383 ± 43
Oc1cc(O)c2c(c1)O[C@H](c1ccc(O)c(O)c1)[C@@H](O)[C@@H]2c1c(O)cc(O)c2c1O[C@H](c1ccc(O)c(O)c1)[C@@H](O)[C@@H]2c1c(O)cc(O)c2c1O[C@H](c1ccc(O)c(O)c1)[C@@H](O)C2 [Procyanidin C2 (9), Procyanidin C2]	15.2 ± 1.4	1.8 ± 1.1	–	88 ± 13.7
